From patent US9695155B2, “Herbicidal substituted pyrimidinyloxy benzene compounds” (E. I. DU PONT DE NEMOURS AND COMPANY, priority 2013, dated 2017)

Key:
barnyardgrass [1] = assay: Test A preemergence; assay type: in vivo, Echinochloa crus-galli; conditions: 0 to 100 scale where 0 is no effect and 100 is complete control
Summary of the method: (§1)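 Compounds in non-phytotoxic solvent with surfactant applied as soil spray preemergence, or postemergence to plants 2-10 cm at one- to two-leaf stage, in loam/sand. After approximately 10 days in greenhouse, injury rated visually versus untreated controls, 0 (no effect) to 100 (complete control).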

wheat = assay: Test A postemergence; assay type: in vivo, Triticum aestivum; conditions: 0 to 100 scale where 0 is no effect and 100 is complete control
Summary of the method: as §1

rice = assay: Test B flooded paddy test; assay type: in vivo, Oryza sativa; conditions: Flood, 250 g ai/ha; 0 to 100 scale where 0 is no effect and 100 is complete control
Summary of the method: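 Scores from 0 (no effect) to 100 (complete control) are visual comparisons with controls, taken 13 to 15 days after compound was applied into floodwater 3 cm deep around 2-leaf plants.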

blackgrass [2] = assay: Test C preemergence; assay type: in vivo, Alopecurus myosuroides; conditions: for Blackgrass plant response rating: preemergence
Summary of the method: (§2)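 Injury was assessed visually against controls 13 to 15 days after application, with 0 meaning no effect and 100 full control; missing entries are shown as a dash. Preemergence sprays hit seeded loam–sand soil, postemergence sprays hit 1- to 4-leaf plants.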

wheat, winter = assay: Test C preemergence; assay type: in vivo, Triticum aestivum; conditions: preemergence
Summary of the method: as §2

large (Lg) crabgrass = assay: Test C preemergence; assay type: in vivo, Digitaria sanguinalis; conditions: for Crabgrass, Large plant response rating: preemergence
Summary of the method: as §2

soybean [3] = assay: Test C preemergence; assay type: in vivo, Glycine max; conditions: preemergence
Summary of the method: as §2

barnyardgrass [4] = assay: Test C preemergence; assay type: in vivo, Echinochloa crus-galli; conditions: for Barnyardgrass plant response rating: preemergence
Summary of the method: as §2

blackgrass [5] = assay: Test C postemergence; assay type: in vivo, Alopecurus myosuroides
Summary of the method: as §2

giant foxtail = assay: Test C postemergence; assay type: in vivo, Setaria faberii
Summary of the method: as §2

ragweed = assay: Test C postemergence; assay type: in vivo, Ambrosia elatior
Summary of the method: as §2

soybean [6] = assay: Test C postemergence; assay type: in vivo, Glycine max
Summary of the method: as §2

oilseed rape = assay: Test C postemergence; assay type: in vivo, Brassica napus
Summary of the method: as §2

[7] = 16 g ai/ha, scale 0 to 100 (0 no effect, 100 complete control)
[8] = 62 g ai/ha, scale 0 (no effect) to 100 (complete control)
[9] = 125 g ai/ha, scale 0 (no effect) to 100 (complete control)
[10] = Preemergence, 31 g ai/ha, scale 0 to 100, 0 no effect, 100 complete control
[11] = 16 g ai/ha, postemergence, 0 is no effect, 100 is complete control
[12] = 31 g ai/ha, postemergence, visual rating, scale 0 to 100 (0 no effect, 100 complete control), 13 to 15 days
[13] = 125 g ai/ha, postemergence, visual rating, scale 0 to 100 (0 no effect, 100 complete control)
[14] = Postemergence, 62 g ai/ha, scale 0 to 100 (0 no effect, 100 complete control)

CCCOc1cnn(-c2c(C#N)cccc2Oc2ncc(Cl)cn2)c1 [Compound 150]
Plant response rating, Barnyardgrass (barnyardgrass [1]; 125 g ai/ha): 90 | Barnyardgrass plant response rating (barnyardgrass [1]; 500 g ai/ha): 100 | Wheat plant response rating (wheat; 125 g ai/ha): 30 | Plant response rating, Wheat (wheat; 500 g ai/ha): 90 | Plant response rating, Rice (rice): 0 | Blackgrass plant response rating (blackgrass [2]; [7]): 0 | Blackgrass plant response rating (blackgrass [2]; [8]): 50 | Blackgrass plant response rating (blackgrass [2]; [9]): 50 | Plant response rating, Blackgrass (blackgrass [2]; [10]): 10 | Wheat plant response rating (wheat, winter; [7]): 0 | Wheat plant response rating (wheat, winter; [8]): 5 | Wheat plant response rating (wheat, winter; [9]): 5 | Crabgrass, Large plant response rating (large (Lg) crabgrass; [7]): 70 | Crabgrass, Large plant response rating (large (Lg) crabgrass; [8]): 100 | Crabgrass, Large plant response rating (large (Lg) crabgrass; [9]): 100 | Plant response rating, Crabgrass, Large (large (Lg) crabgrass; [10]): 98 | Soybean plant response rating (soybean [3]; [7]): 0 | Soybean plant response rating (soybean [3]; [8]): 45 | Soybean plant response rating (soybean [3]; [9]): 90 | Barnyardgrass plant response rating (barnyardgrass [4]; [7]): 5 | Barnyardgrass plant response rating (barnyardgrass [4]; [8]): 65 | Barnyardgrass plant response rating (barnyardgrass [4]; [9]): 80 | Plant response rating, Barnyardgrass (barnyardgrass [4]; [10]): 20 | Plant response rating (0 to 100), Blackgrass (blackgrass [5]; [11]): 5 | Blackgrass plant response rating (blackgrass [5]; [12]): 5 | Plant response rating, Blackgrass (blackgrass [5]; [13]): 10 | Plant response rating, Blackgrass (blackgrass [5]; [14]): 10 | Plant response rating (0 to 100), Foxtail, Giant (giant foxtail; [11]): 5 | Foxtail, Giant plant response rating (giant foxtail; [12]): 20 | Plant response rating, Foxtail, Giant (giant foxtail; [13]): 25 | Plant response rating, Foxtail, Giant (giant foxtail; [14]): 20 | Plant response rating (0 to 100), Ragweed (ragweed; [11]): 30 | Ragweed plant response rating (ragweed; [12]): 30 | Plant response rating, Ragweed (ragweed; [13]): 65 | Plant response rating, Ragweed (ragweed; [14]): 35 | Plant response rating (0 to 100), Soybean (soybean [6]; [11]): 65 | Soybean plant response rating (soybean [6]; [12]): 65 | Plant response rating, Soybean (soybean [6]; [13]): 95 | Plant response rating, Soybean (soybean [6]; [14]): 65 | Plant response rating (0 to 100), Oilseed Rape (oilseed rape; [11]): 5 | Oilseed Rape plant response rating (oilseed rape; [12]): 40 | Plant response rating, Oilseed Rape (oilseed rape; [13]): 50 | Plant response rating, Oilseed Rape (oilseed rape; [14]): 45
